Measurements published in PMC4685510, “A Cell Biologist’s Field Guide to Aurora Kinase Inhibitors” (Frontiers in Oncology, 2015).

Key:
Assay in all cases: biochemical
Format in all cases: biochemical
[1] = target: T1, 363 human kinases (including Aurora A/B/C) (Homo sapiens, UniProt O00444); conditions: PLK4/SAK; for remaining activity at 0.1 µM: 100 nM; for remaining activity at 0.1 µM / remaining activity at 0.5 µM: read-out: % Enzyme Activity (relative to DMSO controls)
T1 sequence (O00444 1-970): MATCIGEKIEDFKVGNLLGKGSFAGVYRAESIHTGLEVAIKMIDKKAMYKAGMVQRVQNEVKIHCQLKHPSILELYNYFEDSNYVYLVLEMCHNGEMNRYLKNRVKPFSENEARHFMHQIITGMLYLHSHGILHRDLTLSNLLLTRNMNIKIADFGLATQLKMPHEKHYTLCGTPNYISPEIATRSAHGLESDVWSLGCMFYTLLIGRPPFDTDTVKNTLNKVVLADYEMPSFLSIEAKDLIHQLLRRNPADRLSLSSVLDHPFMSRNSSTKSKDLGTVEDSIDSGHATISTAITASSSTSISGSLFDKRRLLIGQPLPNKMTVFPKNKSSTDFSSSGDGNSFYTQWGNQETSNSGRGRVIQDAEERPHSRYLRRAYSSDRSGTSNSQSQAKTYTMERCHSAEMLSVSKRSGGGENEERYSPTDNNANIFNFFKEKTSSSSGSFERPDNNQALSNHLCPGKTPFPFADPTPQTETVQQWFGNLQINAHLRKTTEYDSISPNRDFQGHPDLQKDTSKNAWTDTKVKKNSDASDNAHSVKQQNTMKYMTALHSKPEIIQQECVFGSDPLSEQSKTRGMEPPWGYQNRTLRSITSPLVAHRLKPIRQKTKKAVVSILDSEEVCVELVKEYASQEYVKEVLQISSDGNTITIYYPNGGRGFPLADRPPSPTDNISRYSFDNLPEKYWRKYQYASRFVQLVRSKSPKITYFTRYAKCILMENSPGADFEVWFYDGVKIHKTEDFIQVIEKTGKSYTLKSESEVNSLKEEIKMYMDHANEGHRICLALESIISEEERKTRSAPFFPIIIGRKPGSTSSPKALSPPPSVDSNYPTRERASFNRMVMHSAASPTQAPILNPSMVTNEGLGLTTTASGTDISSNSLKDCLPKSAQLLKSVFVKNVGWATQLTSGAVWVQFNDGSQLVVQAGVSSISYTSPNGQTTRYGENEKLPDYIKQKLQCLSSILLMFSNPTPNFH
From the text: (§1) However, the Aurora A/B selectivity ratios derived from our in vitro and in vivo data can be compared to prioritize inhibitors.

[2] = target: 363 human kinases (including Aurora A/B/C) (Homo sapiens, UniProt P12931); conditions: c-Src, [ATP] 100 µM; for remaining activity at 0.1 µM: 100 nM; for remaining activity at 0.1 µM / remaining activity at 0.5 µM: read-out: % Enzyme Activity (relative to DMSO controls)
Sequence of 363 human kinases (including Aurora A/B/C) (Homo sapiens, UniProt P12931) (P12931 whole entry): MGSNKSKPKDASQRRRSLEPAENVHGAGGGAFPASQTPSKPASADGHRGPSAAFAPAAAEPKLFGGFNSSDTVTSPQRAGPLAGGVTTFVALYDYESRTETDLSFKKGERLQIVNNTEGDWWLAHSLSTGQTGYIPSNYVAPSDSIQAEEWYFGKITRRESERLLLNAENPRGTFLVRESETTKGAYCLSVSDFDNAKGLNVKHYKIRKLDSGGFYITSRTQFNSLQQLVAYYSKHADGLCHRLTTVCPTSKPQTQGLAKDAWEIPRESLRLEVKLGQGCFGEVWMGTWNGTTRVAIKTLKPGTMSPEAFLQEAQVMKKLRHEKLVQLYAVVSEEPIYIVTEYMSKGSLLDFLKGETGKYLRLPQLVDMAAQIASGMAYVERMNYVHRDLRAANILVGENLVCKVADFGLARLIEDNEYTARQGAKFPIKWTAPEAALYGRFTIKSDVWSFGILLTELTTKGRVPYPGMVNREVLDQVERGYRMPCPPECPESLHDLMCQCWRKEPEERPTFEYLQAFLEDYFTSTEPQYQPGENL
From the text: as §1

[3] = target: 363 human kinases (including Aurora A/B/C) (Homo sapiens, UniProt P49759); conditions: CLK1, [ATP] 2.5 µM; for remaining activity at 0.1 µM: 100 nM; for remaining activity at 0.1 µM / remaining activity at 0.5 µM: read-out: % Enzyme Activity (relative to DMSO controls)
Sequence of 363 human kinases (including Aurora A/B/C) (Homo sapiens, UniProt P49759) (P49759 whole entry): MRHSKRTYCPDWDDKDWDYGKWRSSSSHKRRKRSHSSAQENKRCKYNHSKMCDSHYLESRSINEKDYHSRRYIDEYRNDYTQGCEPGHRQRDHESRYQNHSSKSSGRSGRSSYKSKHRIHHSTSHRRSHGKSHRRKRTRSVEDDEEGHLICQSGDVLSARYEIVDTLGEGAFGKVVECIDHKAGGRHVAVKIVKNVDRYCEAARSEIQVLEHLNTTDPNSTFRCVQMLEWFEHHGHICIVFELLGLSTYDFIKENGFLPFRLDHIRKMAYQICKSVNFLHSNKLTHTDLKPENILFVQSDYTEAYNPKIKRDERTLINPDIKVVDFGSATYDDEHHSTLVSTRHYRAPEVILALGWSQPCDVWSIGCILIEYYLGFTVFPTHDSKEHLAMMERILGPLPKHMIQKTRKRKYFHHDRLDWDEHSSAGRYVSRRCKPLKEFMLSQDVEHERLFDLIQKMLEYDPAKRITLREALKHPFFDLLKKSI
From the text: as §1

[4] = target: 363 human kinases (including Aurora A/B/C) (Homo sapiens, UniProt Q5TCX8); conditions: MLK4; for remaining activity at 0.1 µM: 100 nM; for remaining activity at 0.1 µM / remaining activity at 0.5 µM: read-out: % Enzyme Activity (relative to DMSO controls)
Sequence of 363 human kinases (including Aurora A/B/C) (Homo sapiens, UniProt Q5TCX8) (Q5TCX8 whole entry): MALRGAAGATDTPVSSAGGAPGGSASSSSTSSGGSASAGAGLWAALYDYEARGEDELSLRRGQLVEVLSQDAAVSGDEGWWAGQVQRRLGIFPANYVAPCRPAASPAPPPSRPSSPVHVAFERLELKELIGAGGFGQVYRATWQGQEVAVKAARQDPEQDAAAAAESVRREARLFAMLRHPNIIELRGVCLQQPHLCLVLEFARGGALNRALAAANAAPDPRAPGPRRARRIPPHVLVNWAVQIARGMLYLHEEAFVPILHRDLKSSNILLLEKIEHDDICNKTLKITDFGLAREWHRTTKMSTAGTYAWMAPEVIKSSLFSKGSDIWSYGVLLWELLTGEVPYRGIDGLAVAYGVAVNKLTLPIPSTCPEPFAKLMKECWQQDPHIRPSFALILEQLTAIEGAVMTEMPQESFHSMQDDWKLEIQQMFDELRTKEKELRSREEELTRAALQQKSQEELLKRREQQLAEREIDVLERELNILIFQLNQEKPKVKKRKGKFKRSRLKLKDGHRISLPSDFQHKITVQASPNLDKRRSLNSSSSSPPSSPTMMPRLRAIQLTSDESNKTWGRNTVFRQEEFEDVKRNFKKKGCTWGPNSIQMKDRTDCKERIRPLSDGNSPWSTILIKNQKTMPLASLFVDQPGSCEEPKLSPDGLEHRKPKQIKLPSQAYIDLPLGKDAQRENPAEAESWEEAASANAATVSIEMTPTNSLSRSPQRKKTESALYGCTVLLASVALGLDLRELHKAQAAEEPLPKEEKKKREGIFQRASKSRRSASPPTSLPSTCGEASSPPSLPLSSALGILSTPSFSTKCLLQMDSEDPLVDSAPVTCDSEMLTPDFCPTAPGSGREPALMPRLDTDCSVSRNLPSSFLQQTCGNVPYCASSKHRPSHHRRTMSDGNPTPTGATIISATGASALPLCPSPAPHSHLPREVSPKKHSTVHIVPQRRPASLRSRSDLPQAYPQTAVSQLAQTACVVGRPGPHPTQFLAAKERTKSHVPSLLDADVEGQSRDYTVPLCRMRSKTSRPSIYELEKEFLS
From the text: as §1

[5] = target: T2, 363 human kinases (including Aurora A/B/C) (Homo sapiens, UniProt Q92630); conditions: DYRK2, [ATP] 5 µM; for remaining activity at 0.1 µM: 100 nM; for remaining activity at 0.1 µM / remaining activity at 0.5 µM: read-out: % Enzyme Activity (relative to DMSO controls)
T2 sequence (Q92630 1-601): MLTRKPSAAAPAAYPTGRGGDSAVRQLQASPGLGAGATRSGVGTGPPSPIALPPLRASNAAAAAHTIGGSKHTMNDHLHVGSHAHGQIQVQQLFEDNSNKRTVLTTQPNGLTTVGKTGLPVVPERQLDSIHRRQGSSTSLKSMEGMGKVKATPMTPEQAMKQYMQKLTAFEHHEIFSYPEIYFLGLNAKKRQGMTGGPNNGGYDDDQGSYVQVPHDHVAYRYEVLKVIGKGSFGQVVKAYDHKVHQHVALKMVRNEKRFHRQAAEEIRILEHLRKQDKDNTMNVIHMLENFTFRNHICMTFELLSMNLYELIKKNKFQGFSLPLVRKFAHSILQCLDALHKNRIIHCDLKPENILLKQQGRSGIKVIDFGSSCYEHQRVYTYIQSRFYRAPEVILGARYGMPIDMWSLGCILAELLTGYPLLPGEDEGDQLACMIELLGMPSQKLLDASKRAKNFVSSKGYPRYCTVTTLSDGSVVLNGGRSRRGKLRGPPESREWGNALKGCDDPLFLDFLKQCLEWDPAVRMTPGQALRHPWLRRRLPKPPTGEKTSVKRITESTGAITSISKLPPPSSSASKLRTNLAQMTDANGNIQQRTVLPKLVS
From the text: as §1

[6] = target: 363 human kinases (including Aurora A/B/C) (Homo sapiens, UniProt Q9HAZ1); conditions: CLK4, [ATP] 100 µM; for remaining activity at 0.1 µM: 100 nM; for remaining activity at 0.1 µM / remaining activity at 0.5 µM: read-out: % Enzyme Activity (relative to DMSO controls)
Sequence of 363 human kinases (including Aurora A/B/C) (Homo sapiens, UniProt Q9HAZ1) (Q9HAZ1 whole entry): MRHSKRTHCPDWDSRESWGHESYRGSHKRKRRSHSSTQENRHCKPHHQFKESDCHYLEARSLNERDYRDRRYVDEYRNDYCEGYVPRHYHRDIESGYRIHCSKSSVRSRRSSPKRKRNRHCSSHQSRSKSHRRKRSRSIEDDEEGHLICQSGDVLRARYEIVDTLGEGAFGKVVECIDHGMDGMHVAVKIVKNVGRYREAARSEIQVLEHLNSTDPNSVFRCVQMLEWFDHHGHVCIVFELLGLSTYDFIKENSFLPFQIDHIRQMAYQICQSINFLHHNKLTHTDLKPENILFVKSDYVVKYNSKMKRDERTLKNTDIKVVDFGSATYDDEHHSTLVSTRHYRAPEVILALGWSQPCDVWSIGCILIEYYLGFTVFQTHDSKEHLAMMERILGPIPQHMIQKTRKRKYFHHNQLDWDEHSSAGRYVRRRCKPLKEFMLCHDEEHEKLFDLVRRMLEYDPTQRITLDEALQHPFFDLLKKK
From the text: as §1

[7] = target: T3, 363 human kinases (including Aurora A/B/C) (Homo sapiens, UniProt Q9Y2U5); conditions: MEKK2; for remaining activity at 0.1 µM: 100 nM; for remaining activity at 0.1 µM / remaining activity at 0.5 µM: read-out: % Enzyme Activity (relative to DMSO controls)
T3 sequence (Q9Y2U5 1-619): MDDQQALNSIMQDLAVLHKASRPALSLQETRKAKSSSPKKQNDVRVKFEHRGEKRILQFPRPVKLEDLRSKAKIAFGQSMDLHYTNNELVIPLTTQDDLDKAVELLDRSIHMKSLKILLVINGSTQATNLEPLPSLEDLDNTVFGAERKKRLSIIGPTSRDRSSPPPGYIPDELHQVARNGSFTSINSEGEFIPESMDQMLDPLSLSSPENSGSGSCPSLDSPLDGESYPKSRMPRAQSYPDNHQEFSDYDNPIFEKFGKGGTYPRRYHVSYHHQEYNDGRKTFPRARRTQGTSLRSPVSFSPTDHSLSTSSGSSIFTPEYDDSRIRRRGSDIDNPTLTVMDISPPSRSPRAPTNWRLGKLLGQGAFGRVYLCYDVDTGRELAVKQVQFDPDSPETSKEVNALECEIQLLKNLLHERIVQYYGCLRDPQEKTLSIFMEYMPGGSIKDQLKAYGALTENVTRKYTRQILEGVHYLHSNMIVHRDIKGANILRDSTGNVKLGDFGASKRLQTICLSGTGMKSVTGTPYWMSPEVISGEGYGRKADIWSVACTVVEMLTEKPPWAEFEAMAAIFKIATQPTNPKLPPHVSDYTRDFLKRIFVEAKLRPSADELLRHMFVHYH
From the text: as §1

Compound | remaining activity at 0.1 µM [1] | remaining activity at 0.1 µM [2] | remaining activity at 0.1 µM [3] | remaining activity at 0.1 µM [4] | remaining activity at 0.1 µM [5] | remaining activity at 0.1 µM [6] | remaining activity at 0.1 µM [7] | remaining activity at 0.5 µM ([1]; 500 nM) | remaining activity at 0.5 µM ([2]; 500 nM) | remaining activity at 0.5 µM ([3]; 500 nM) | remaining activity at 0.5 µM ([4]; 500 nM) | remaining activity at 0.5 µM ([5]; 500 nM) | remaining activity at 0.5 µM ([6]; 500 nM) | remaining activity at 0.5 µM ([7]; 500 nM) | other results
CCn1cc(-c2ccnc3[nH]c(-c4cccc(CN(C)C)c4)cc23)c(-c2ccc(NC(=O)N(C)C)cc2)n1 [GSK1070916] | 115% | 74.6% | 114% | 89% | 108% | 70.3% | 81.7% |  |  |  |  |  |  |  | 
O=C(c1cccc(Cl)c1F)N1CCN(Cc2cccc(Nc3nccs3)n2)CC1 [MK-8745] |  |  |  |  |  |  |  | 71.4% | 36.4% | 92.5% | 91.5% | 147% | 59.9% | 97.5% | % Enzyme Activity (relative to DMSO controls) ([1]; 500 nM): 70.47%; % Enzyme Activity (relative to DMSO controls) ([2]; 500 nM): 35.90%; % Enzyme Activity (relative to DMSO controls) ([3]; 500 nM): 91.67%; % Enzyme Activity (relative to DMSO controls) ([4]; 500 nM): 91.32%; % Enzyme Activity (relative to DMSO controls) ([5]; 500 nM): 138.31%; % Enzyme Activity (relative to DMSO controls) ([6]; 500 nM): 57.02%; % Enzyme Activity (relative to DMSO controls) ([7]; 500 nM): 96.27%
O=C(O)[C@]1(Cc2cccc(Nc3nccs3)n2)CC[C@@H](Oc2cccc(Cl)c2F)CC1 [MK-5108] | 21.9% | 39.2% | 68.1% | 113% | 82% | 34.9% | 102% | 9.25% | 12.5% | 29.1% | 34.7% | 56.2% | 6.67% | 83.9% | 
